Measured values published in patent US20120283120A1, “SCREENING METHOD” (Takeda Pharmaceutical Company Limited, priority 2009, published 2012).

Tests used:
Type in all cases: cell-based, human
[1] = test system: 4 kinds of ARaiv1 clones (ARaiv1, ARaiv1Δ1, ARaiv1Δ2, ARaiv1Δ3); assay: reporter gene assay of ARaiv1 clones with pGL3-2×PSA reporter in COS7 cell (luciferase); conditions: bicalutamide added 24 hr after cotransfection, luciferase assay 24 hr later
Experimental: The above-mentioned 4 kinds of ARaiv1 clones (ARaiv1 and ARaiv1Δ1, ARaiv1Δ2 and ARaiv1Δ3) were respectively subcloned to a pcDNA3.1 expression vector, and the transcription activity was examined by a reporter gene assay. The ARaiv1 clone expression vector and pGL3-2×PSA reporter were cotransfected into COS7 cell. After 24 hr, DHT or an AR antagonist bicalutamide, was added, and 24 hr later, a luciferase assay was performed.

JDCaP-hr cells = assay: JDCaP-hr cell proliferation after siRNA transfection; conditions: cultured for 5 days; for growth promotion due to DHT: DHT added; for cell proliferation (growth inhibition): androgen-free conditions
Experimental: siRNA targeting AR-specific exon 8 (siAR), siRNA targeting ARaiv1-specific exon 4b (siARaiv1) or siRNA targeting exon 1 common to the both (siDual) was transfected into JDCaP-hr cells, the cells were cultured for 5 days in an androgen-free medium added with DHT or DMSO, and the cell proliferation was measured (FIG. 7). […] On the other hand, the growth inhibitory effect was partial in the siAR transfection group.

full-length AR = assay: Western blotting of AR production after siRNA transfection in JDCaP-hr cells; conditions: 48 hr from siRNA transfection
Excerpt: (§1) An siRNA targeting exon 4b specific to ARaiv1 (siARaiv1: 5′-[…]-3′ (SEQ ID NO: 29)) was designed and synthesized by Qiagen. In addition, an siRNA targeting exon 8 specific to AR (siAR: Hs_AR—6_HP Validated siRNA: 5′-[…]-3′ (SEQ ID NO: 30)) and an siRNA cocktail containing siRNA targeting exon 1 common to AR and ARaiv1 (siDual: OTP SMART pool, L-003400-00-0005) were purchased from Qiagen and Dharmacon, respectively. siAR, siARaiv1 or siDual was transfected into JDCaP-hr cells. RNA was extracted from the cells after 48 hr from the siRNA transfection, and the expression level of the target gene was analyzed by quantitative RT-PCR. As a result, it was confirmed that gene knockdown by each siRNA was carried out sufficiently efficiently (FIG. 6a). To examine changes in the C-terminally defective-type AR protein production, which were caused by the ARaiv1 knockdown, an extract was prepared from the cells after 48 hr from the siRNA transfection, and the production of AR and β-actin was examined by Western blotting. The production of only full-length AR in the siAR transfection group, only C-terminally defective-type AR in the siARaiv1 transfection group, and the both in the siDual transfection group decreased (FIG. 6b).

[2] = test system: C-terminally defective-type AR; assay: as above; conditions: 48 hr from siRNA transfection
Excerpt: as §1

22Rv1 cells = assay: colony formation assay of 22Rv1 cells after shRNA expression vector transfection; conditions: androgen-free conditions
Excerpt: Expression plasmids of shRNA targeting AR-specific exon 8 (shAR), shRNA targeting ARaiv1-specific exon 4b (shARaiv1) and shRNA targeting exon 1 common to the both (shDual) were constructed using siSTRIKE U6 hairpin cloning system (Promega). The target sequences of shAR and siARaiv1 were the same as those of the above-mentioned siAR and siARaiv1. As the target sequence of shRNA specific to exon 1 (shDual), the sequence of exon 1-specific siRNA (5′-[…]-3′ (SEQ ID NO: 31)) contained in siDual was used.
The expression vector of shAR, siARaiv1 or shDual was transfected into 22Rv1 cells, and a colony formation assay was carried out under androgen-free conditions. In the siARaiv1 transfection group, the number of colonies decreased to 19% of that of the non-specific shRNA (shNS) transfection group (NS group). In the shDual transfection group, the number of colonies decreased to 4% of that of the NS group, and remarkable suppression of colony formation was observed. On the other hand, the colony formation ability of the shAR transfection group was 54% of the NS group, and the decrease was weaker as compared to the ARaiv1 knockdown group.

CC(O)(CS(=O)(=O)c1ccc(F)cc1)C(=O)Nc1ccc(C#N)c(C(F)(F)F)c1 (centres unmarked) [bicalutamide]
transcription activity of 4 kinds of ARaiv1 clones (reporter activity) [1]: not inhibited

siAR: siRNA targeting exon 8 specific to AR, Hs_AR—6_HP Validated siRNA: 5′-ggaacucgaucguaucauu-3′ (SEQ ID NO: 30) (GGAACUCGAUCGUAUCAUU; chemistry not given here)
growth promotion due to DHT (JDCaP-hr cells): remarkably inhibited | cell proliferation (growth inhibition) (JDCaP-hr cells): partial | production of full-length AR (full-length AR): decreased

siARaiv1: siRNA targeting exon 4b specific to ARaiv1: 5′-gattgttcttgatcacata-3′ (SEQ ID NO: 29) (GATTGTTCTTGATCACATA; listed as DNA, chemistry not given here)
growth promotion due to DHT (JDCaP-hr cells): growth promotion due to DHT was observed | cell proliferation (growth inhibition) (JDCaP-hr cells): remarkable growth inhibition | production of C-terminally defective-type AR [2]: decreased | number of colonies relative to non-specific shRNA (NS) group (22Rv1 cells): 19%
